{"source": "patent US10610535B2", "about": "(The Regents of the University of California, priority 2005, dated 2020)", "key": {"[1]": {"system": "post-partum patient with relapsing remitting multiple sclerosis", "test": "Case of post-partum relapsing remitting MS patient", "type": "in vivo, human", "experimental": "A patient was diagnosed as having relapsing remitting multiple sclerosis. Following the delivery of their first child (now […]), the patient was treated only with Copaxone and relapsed at 6 weeks. Following the delivery of their second child (now […]), the patient was again treated with Copaxone alone and again relapsed, this time at 4.5 months. Following a subsequent pregnancy, the patient was treated with 8 mg estriol/day in an attempt to prevent their post partum relapses.\nFollowing the birth of the patient's third child (now 6 months), the patient resumed treatment with Copaxone as before. However, on day 10 post-partum they began taking estriol 8 mg/daily in an oral dosage form. […] Since monthly brain MRIs with gadolinium to detect enhancing MS lesions are more sensitive for inflammatory disease activity than relapses, the patient underwent serial monthly MRIs at post partum months 4, 5, and 6.\nThe patient doubled the progesterone minipill for 2 weeks to stabilize the endometrium. Otherwise no adverse events have been reported."}, "[2]": {"system": "DTH responses to tetanus and candida", "set-up": "species or system human", "conditions": "in vivo"}, "[3]": {"system": "women with clinically definite MS", "test": "Tolerability and laboratory safety measures, estriol trial and extension phase", "type": "in vivo, human", "conditions": "oral estriol 8 milligrams/day", "description": "Twelve female patients with clinically definite MS were enrolled. Six had RR disease and six had SP disease. All six RR and four of six SP patients completed the entire 18 month study period. […] Of the ten patients who completed the entire study, the mean age was 44 years (range 28 to 50 years) and the mean EDSS was 3.3 (range 1.0 to 6.5). The mean EDSS score for the SP patients was 5.0 while the mean EDSS for the RR patients was 2.2. The 18 month trial was extended in RR patients whereby treatment was re-instituted. Medication. For the initial treatment phase, micronized, U.S.P. graded estriol powder (Medisca, Inc., Plattsburg, N.Y.) was put into capsules by UCLA Pharmaceutical Services.\n(§1) Subjects were evaluated using the Kurtzke's Expanded Disability Status Scale (EDSS) by the same neurologist (RV) throughout the study. At each visit the study nurse (RK) administered the paced auditory serial addition test (PASAT) and the 9-hole peg test. Blood was drawn for SMA12, cholesterol panel, blood counts and hormone levels (estriol, estradiol, estrone, LH, FSH, cortisol, progesterone). Estriol levels in serum were determined by ELISA according to manufacturer's instructions (Oxford Biomedical, Oxford, Mich.).\nIndeed, estrogen cannot be given for a lengthy period of time in an “unopposed” fashion in any woman with a uterus. […]"}, "[4]": {"system": "DTH responses to tetanus and candida", "conditions": "cited from earlier work"}, "[5]": {"test": "Serum estriol levels (ELISA) in oral estriol crossover trial", "type": "in vivo, human", "conditions": "oral estriol 8 milligrams/day, treatment and re-treatment, MS patients", "experimental": "as §1"}, "[6]": {"system": "women with clinically definite MS", "test": "Serial cerebral MRI: gadolinium enhancing lesions and T2 lesion volumes"}, "[7]": {"system": "IFNγ in peripheral blood mononuclear cells (PBMCs)", "test": "IFNγ levels by RT-PCR of unstimulated PBMCs derived ex vivo", "type": "in vivo, human", "experimental": "Peripheral blood mononuclear cells (PBMCs) were isolated from heparinized venous blood and cryopreserved. PBMCs were thawed in parallel from a given patient during the two pre-treatment timepoints and the two treatment timepoints. Total RNA was isolated, DNA was removed and mRNA was reverse transcribed. Both IFN-γ and actin were amplified from the same cDNA, however, the cDNA was diluted 1:9 prior to amplification for actin. Amplification was done in 1 mM […] using IFN.γ and actin primer sequences (Life Technologies, Rockville, Md.). Complementary DNA was amplified for 35 cycles: 45″ @ 95° C., 60″ @ 54° C. and 45″ @ 72° C. PCR products were separated on a 1.5% agarose gel containing ethidium bromide and densitometry performed."}, "[8]": {"system": "women with clinically definite MS", "test": "Clinical measures: EDSS, 9-hole peg test, PASAT, relapses", "type": "in vivo, human", "experimental": "as §1"}, "[9]": {"system": "women with clinically definite MS", "conditions": "pilot clinical trial, non-pregnant female MS patients; cited from earlier work"}, "[10]": {"system": "EAE mice", "conditions": "cited from earlier work"}, "[11]": {"system": "peripheral blood mononuclear cells", "conditions": "pilot clinical trial, non-pregnant female MS patients; cited from earlier work"}, "[12]": {"target": "ERβ as compared to ERα (Homo sapiens, UniProt Q92731)", "sequence (Q92731 whole entry)": "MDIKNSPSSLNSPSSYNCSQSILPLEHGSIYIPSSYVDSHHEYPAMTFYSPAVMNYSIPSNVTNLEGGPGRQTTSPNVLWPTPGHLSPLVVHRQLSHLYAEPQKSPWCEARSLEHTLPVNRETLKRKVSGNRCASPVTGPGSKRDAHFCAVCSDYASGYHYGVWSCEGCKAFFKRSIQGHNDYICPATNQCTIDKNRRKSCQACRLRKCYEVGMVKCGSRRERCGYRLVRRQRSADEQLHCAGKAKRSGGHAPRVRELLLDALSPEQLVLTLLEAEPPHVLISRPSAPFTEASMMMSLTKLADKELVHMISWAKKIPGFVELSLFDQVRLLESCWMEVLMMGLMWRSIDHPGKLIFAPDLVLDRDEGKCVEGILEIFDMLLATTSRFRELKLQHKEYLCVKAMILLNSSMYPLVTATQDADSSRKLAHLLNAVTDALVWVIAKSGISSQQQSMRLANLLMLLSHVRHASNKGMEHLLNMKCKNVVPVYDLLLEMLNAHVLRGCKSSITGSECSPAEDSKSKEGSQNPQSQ", "conditions": "cited from earlier work"}, "[13]": {"system": "SJL mice with adoptive EAE", "conditions": "followed for the first 27 days; cited from earlier work"}, "[14]": {"conditions": "RR patients, first three months of treatment"}, "[15]": {"conditions": "RR patients, next three months of treatment"}, "[16]": {"conditions": "90 day release pellets of 5 or 15 milligrams estriol"}}}
{"molecule": "C[C@]12CC[C@@H]3c4ccc(O)cc4CC[C@H]3[C@@H]1CC(O)C2O", "note": "(some centres unmarked) [estriol, estra-1,3,5(10)-triene-3,16,17-triol]", "values": [{"measurement": "Post-partum relapses", "setting": "[1]; estriol 8 mg/daily oral from day 10 post-partum, with Copaxone, third child", "result": "no relapses for 6 months"}, {"measurement": "Adverse events", "setting": "[1]; estriol 8 mg/daily with Copaxone and norethindrone 0.35 mg daily", "result": "increased irregular menstrual bleeding"}, {"measurement": "EDSS", "setting": "[1]; estriol 8 mg/daily with Copaxone, 6 months post-partum", "result": 1}, {"measurement": "Uterine ultrasounds", "setting": "[1]; month 3 and 6", "result": "thin, not thick, endometrium"}, {"measurement": "Gadolinium enhancement on brain MRI", "setting": "[1]; post partum month 4, estriol with Copaxone", "result": "no enhancement"}, {"measurement": "Gadolinium enhancement on brain MRI", "setting": "[1]; post partum month 5, estriol with Copaxone", "result": "only one small enhancing lesion"}, {"measurement": "Gadolinium enhancement on brain MRI", "setting": "[1]; post partum month 6, estriol with Copaxone", "result": "No new enhancement"}, {"measurement": "T2 lesion load", "setting": "[1]; post partum months 4-6, estriol with Copaxone", "result": "stable throughout"}, {"measurement": "DTH responses to candida", "setting": "[2]", "result": "decreased less dramatically and more variably"}, {"measurement": "DTH responses to tetanus", "setting": "[2]", "result": "significantly, P=−0.006, decreased"}, {"measurement": "Laboratory measures including LH, FSH, cortisol, progesterone, estradiol and estrone", "setting": "[3]", "result": "no significant alterations"}, {"measurement": "Tolerability", "setting": "[3]; six months", "result": "well tolerated with only menstrual cycle abnormalities"}, {"measurement": "Delayed type hypersensitivity response (prototypic in vivo Th1 response)", "setting": "[4]", "result": "reduced"}, {"measurement": "Serum estriol levels", "setting": "[5]", "result": "approximated those observed in women who were six months pregnant"}, {"measurement": "Change in median T2 lesion volumes (lower)", "setting": "[6]; RR group, four month re-treatment extension period", "result": 2.0, "unit": "%"}, {"measurement": "Change in median T2 lesion volumes (higher)", "setting": "[6]; RR group, six month post treatment period", "result": 7.4, "unit": "%"}, {"measurement": "Change in median T2 lesion volumes", "setting": "[6]; RR group, six month treatment period", "result": 0, "unit": "%"}, {"measurement": "Decrease in median total enhancing lesion numbers", "setting": "[6]; [14]", "result": 82, "unit": "%"}, {"measurement": "Decrease in median total enhancing lesion volumes", "setting": "[6]; [14]", "result": 79, "unit": "%"}, {"measurement": "Median total enhancing lesion volumes and numbers", "setting": "[6]; RR patients, last three months of the post treatment period", "result": "returning to near baseline levels"}, {"measurement": "Decrease in median total enhancing lesion numbers", "setting": "[6]; [15]", "result": 82, "unit": "%"}, {"measurement": "Decrease in median total enhancing lesion volumes", "setting": "[6]; [15]", "result": 82, "unit": "%"}, {"measurement": "Total volume and number of enhancing lesions", "setting": "[6]; all ten MS patients (6RR, 4SP), treatment period vs six month pretreatment baseline", "result": "decreased"}, {"measurement": "Levels of IFNγ", "setting": "[7]; four SP patients", "result": "no decrease"}, {"measurement": "Levels of IFNγ", "setting": "[7]; six RR patients, study month 9 (three months of treatment) vs pretreatment", "result": "variably decreased"}, {"measurement": "Levels of IFNγ", "setting": "[7]; six RR patients, study month 12 (six months of treatment) vs pretreatment", "result": "significantly decreased"}, {"measurement": "Hole Peg Test Score", "setting": "[8]; 4 RR, L, 9 mo., Estriol Treatment", "result": 24.3}, {"measurement": "Hole Peg Test Score", "setting": "[8]; 4 RR, L, 12 mo., Estriol Treatment", "result": 23.3}, {"measurement": "Hole Peg Test Score", "setting": "[8]; 4 RR, L, 15 mo., Post Treatment", "result": 23.0}, {"measurement": "Hole Peg Test Score", "setting": "[8]; 4 RR, L, 18 mo., Post Treatment", "result": 22.7}, {"measurement": "Hole Peg Test Score", "setting": "[8]; 4 RR, R, 9 mo., Estriol Treatment", "result": 22.5}, {"measurement": "Hole Peg Test Score", "setting": "[8]; 4 RR, R, 12 mo., Estriol Treatment", "result": 21.5}, {"measurement": "Hole Peg Test Score", "setting": "[8]; 4 RR, R, 15 mo., Post Treatment", "result": 21.0}, {"measurement": "Hole Peg Test Score", "setting": "[8]; 4 RR, R, 18 mo., Post Treatment", "result": 21.4}, {"measurement": "EDSS Scores", "setting": "[8]; 4 SP, 9 mo., Estriol Treatment", "result": 4.9}, {"measurement": "EDSS Scores", "setting": "[8]; 4 SP, 12 mo., Estriol Treatment", "result": 5.0}, {"measurement": "EDSS Scores", "setting": "[8]; 4 SP, 15 mo., Post Treatment", "result": 5.1}, {"measurement": "EDSS Scores", "setting": "[8]; 4 SP, 18 mo., Post Treatment", "result": 5.0}, {"measurement": "Hole Peg Test Score", "setting": "[8]; 4 SP, L, 9 mo., Estriol Treatment", "result": 22.7}, {"measurement": "Hole Peg Test Score", "setting": "[8]; 4 SP, L, 12 mo., Estriol Treatment", "result": 24.8}, {"measurement": "Hole Peg Test Score", "setting": "[8]; 4 SP, L, 15 mo., Post Treatment", "result": 26.7}, {"measurement": "Hole Peg Test Score", "setting": "[8]; 4 SP, L, 18 mo., Post Treatment", "result": 25.0}, {"measurement": "Hole Peg Test Score", "setting": "[8]; 4 SP, R, 9 mo., Estriol Treatment", "result": 30.2}, {"measurement": "Hole Peg Test Score", "setting": "[8]; 4 SP, R, 12 mo., Estriol Treatment", "result": 31.7}, {"measurement": "Hole Peg Test Score", "setting": "[8]; 4 SP, R, 15 mo., Post Treatment", "result": 29.4}, {"measurement": "Hole Peg Test Score", "setting": "[8]; 4 SP, R, 18 mo., Post Treatment", "result": 34.0}, {"measurement": "EDSS Scores", "setting": "[8]; 6 RR, 9 mo., Estriol Treatment", "result": 1.5}, {"measurement": "EDSS Scores", "setting": "[8]; 6 RR, 12 mo., Estriol Treatment", "result": 1.7}, {"measurement": "EDSS Scores", "setting": "[8]; 6 RR, 15 mo., Post Treatment", "result": 1.8}, {"measurement": "EDSS Scores", "setting": "[8]; 6 RR, 18 mo., Post Treatment", "result": 1.8}, {"measurement": "Improvement in PASAT scores", "setting": "[8]; RR patients, during treatment as compared to baseline", "result": 14.0, "unit": "%"}, {"measurement": "Relapses", "setting": "[8]; SP patients, whole study", "result": "No relapses"}, {"measurement": "EDSS and 9 Hole Peg Test scores", "setting": "[8]; during the study", "result": "no significant changes"}, {"measurement": "Relapses", "setting": "[8]; six RR patients, post treatment period", "result": "two"}, {"measurement": "Relapses", "setting": "[8]; six RR patients, re-treatment period", "result": "none"}, {"measurement": "Relapses", "setting": "[8]; six RR patients, treatment period", "result": "one"}, {"measurement": "Reduction of gadolinium-enhancing lesions on serial brain MRIs", "setting": "[9]", "result": "> 80", "unit": "%"}, {"measurement": "EAE disease severity", "setting": "[10]; 90 day release pellets of 5 or 15 milligrams estriol, before or after disease onset", "result": "reduced"}, {"measurement": "Inflammation and demyelination", "setting": "[10]; [16]", "result": "reduced inflammation and demyelination"}, {"measurement": "Production of the Th2 cytokine IL-10", "setting": "[10]; [16]", "result": "increase production"}, {"measurement": "Onset of clinical EAE", "setting": "[10]; late pregnancy levels of estriol or supraphysiological doses of estradiol (5 times pregnancy levels)", "result": "delay the onset"}, {"measurement": "TH2 (IL5, IL10) cytokine production by peripheral blood mononuclear cells", "setting": "[11]", "result": "increased"}, {"measurement": "Th1 (TNFα, IFNγ) cytokine production by peripheral blood mononuclear cells", "setting": "[11]", "result": "reduced"}]}
{"molecule": "C=Cc1cc(O)cc2nc(-c3ccc(O)c(F)c3)oc12", "note": "[WAY-202041]", "values": [{"measurement": "Selectivity for ERβ as compared to ERα", "setting": "[12]", "result": 200, "unit": "fold"}, {"measurement": "Effect in adoptive EAE", "setting": "[13]", "result": "no effect"}]}
